Assay results: patent publication US9932356B2, “Pyrazolopyrimidine macrocycles as inhibitors of human immunodeficiency virus replication” (priority 2014, dated 2018)

The compounds below were run on NL-RLuc virus (assay: Inhibition of HIV replication (NL-RLuc luciferase reporter virus in MT-2 cells)). Conditions: Human immunodeficiency virus 1, MT2, 120 h.
Type: cell-based
From the text: Inhibition of HIV replication: A recombinant NL-RLuc proviral clone was constructed in which a section of the nef gene from NL4-3 was replaced with the Renilla Luciferase gene. This virus is fully infectious and can undergo multiple cycles of replication in cell culture. In addition, the luciferous reporter provides a simple and easy method for quantitating the extent of virus growth and consequently, the antiviral activity of test compounds. The plasmid pNLRLuc contains the proviral NL-Rluc DNA cloned into pUC18 at the PvuII site. The NL-RLuc virus was prepared by transfection of 293T cells with the plasmid pNLRLuc. Transfections were performed using the LipofectAMINE PLUS kit from Invitrogen (Carlsbad, Calif.) according to the manufacturer and the virus generated was titered in MT-2 cells. For susceptibility analyses, the titrated virus was used to infect MT-2 cells in the presence of compound, and after 5 days of incubation, cells were processed and quantitated for virus growth by the amount of expressed luciferase. Assay media was RPMI 1640 supplemented with 10% heat inactivated fetal bovine serum (FBS), 100 units/ml penicillin G/100 units/ml streptomycin, 10 mM HEPES buffer pH 7.55 and 2 mM L-glutamine. The results from at least 2 experiments were used to calculate the EC50 values. Luciferase was quantitated using the Dual Luciferase kit from Promega (Madison, Wis.). Susceptibility of viruses to compounds was determined by incubation in the presence of serial dilutions of the compound. The 50% effective concentration (EC50) was calculated by using the exponential form of the median effect equation where (Fa)=1/[1+(ED50/drug conc.)^m] (Johnson V A, Byington R T. Infectivity Assay. In Techniques in HIV Research. ed. Aldovini A, Walker B D. 71-76. New York: Stockton Press. 1990).

Row | Structure (SMILES) | EC50
1 | Cc1nc2cc3nn2c(c1[C@H](OC(C)(C)C)C(=O)O)N1CCC(C)(CC1)OC/C=C/CCc1ccn(n1)-c1cccc-3c1 [Example 1, (2S)-tert-Butoxy[(21E)-4,25-dimethyl-24-oxa-1,5,7,8,15,30-hexaazahexacyclo[23.2.2.1^6,9.1^10,14.1^15,18.0^2,7]dotriaconta-2,4,6(32),8,10(31),11,13,16,18(30),21-decaen-3-yl]acetic acid] | 87 nM
2 | Cc1nc2cc3nn2c(c1[C@H](OC(C)(C)C)C(=O)O)N1CCC(C)(CC1)OCCCCCc1ccn(n1)-c1cccc-3c1 [Example 2, (2S)-tert-Butoxy[4,25-dimethyl-24-oxa-1,5,7,8,15,30-hexaazahexacyclo[23.2.2.1^6,9.1^10,14.1^15,18.0^2,7]dotriaconta-2,4,6(32),8,10(31),11,13,16,18(30)-nonaen-3-yl]acetic acid] | 49 nM
3 | Cc1nc2cc3nn2c(c1[C@H](OC(C)(C)C)C(=O)O)N1CCC(C)(CC1)OCCCCCn1ccc(n1)-c1cccc-3c1 [Example 3, (2S)-tert-Butoxy[4,25-dimethyl-24-oxa-1,5,7,8,18,30-hexaazahexacyclo[23.2.2.1^6,9.1^10,14.1^15,18.0^2,7]dotriaconta-2,4,6(32),8,10(31),11,13,15(30),16-nonaen-3-yl]acetic acid] | 26 nM
4 | Cc1nc2cc3nn2c(c1[C@H](OC(C)(C)C)C(=O)O)N1CCC(C)(CC1)OCCCCn1ccc(n1)-c1cccc-3c1 [Example 4, (2S)-tert-butoxy[4,24-dimethyl-23-oxa-1,5,7,8,18,29-hexaazahexacyclo[22.2.2.1^6,9.1^10,14.1^15,18.0^2,7]hentriaconta-2,4,6(31),8,10(30),11,13,15(29),16-nonaen-3-yl]acetic acid] | 14 nM
5 | Cc1cc2n(n1)-c1cccc(c1)-c1cc3nc(C)c([C@H](OC(C)(C)C)C(=O)O)c(n3n1)N1CCC(C)(CCCCCC2)CC1 [Example 5, (2S)-tert-Butoxy[4,17,26-trimethyl-1,5,7,8,15,16-hexaazahexacyclo[24.2.2.1^6,9.1^10,14.0^2,7.0^15,19]dotriaconta-2,4,6(32),8,10(31),11,13,16,18-nonaen-3-yl]acetic acid] | 4 nM
6 | Cc1cc2n(n1)-c1cccc(c1)-c1cc3nc(C)c([C@H](OC(C)(C)C)C(=O)O)c(n3n1)N1CCC(C)(CCCCC2)CC1 [Example 6, (2S)-tert-butoxy[4,17,25-trimethyl-1,5,7,8,15,16-hexaazahexacyclo[23.2.2.1^6,9.1^10,14.0^2,7.0^15,19]hentriaconta-2,4,6(31),8,10(30),11,13,16,18-nonaen-3-yl]acetic acid] | 7 nM
7 | Cc1nc2c(s1)CCCCCCC1(C)CCN(CC1)c1c([C@H](OC(C)(C)C)C(=O)O)c(C)nc3cc(nn13)-c1cccc-2c1 [Example 7, (2S)-tert-Butoxy[4,17,26-trimethyl-18-thia-1,5,7,8,16-pentaazahexacyclo[24.2.2.1^6,9.1^10,14.0^2,7.0^15,19]dotriaconta-2,4,6(32),8,10(31),11,13,15(19),16-nonaen-3-yl]acetic acid] | 7 nM
8 | Cc1nc2c(s1)CCCCCC1(C)CCN(CC1)c1c([C@H](OC(C)(C)C)C(=O)O)c(C)nc3cc(nn13)-c1cccc-2c1 [Example 8, (2S)-tert-butoxy[4,17,25-trimethyl-18-thia-1,5,7,8,16-pentaazahexacyclo[23.2.2.1^6,9.1^10,14.0^2,7.0^15,19]hentriaconta-2,4,6(31),8,10(30),11,13,15(19),16-nonaen-3-yl]acetic acid] | 7 nM
9 | Cc1nc2cc3nn2c(c1[C@H](OC(C)(C)C)C(=O)O)N1CCC(C)(CC/C=C/CCc2nc(C)c(C)n2-c2cccc-3c2)CC1 [Example 9, (2S)-tert-Butoxy[4,16,17,26-tetramethyl-1,5,7,8,15,18-hexaazahexacyclo[24.2.2.1^6,9.1^10,14.0^2,7.0^15,19]dotriaconta-2,4,6(32),8,10(31),11,13,16,18,22-decaen-3-yl]acetic acid] | 9 nM
10 | Cc1nc2cc3nn2c(c1[C@H](OC(C)(C)C)C(=O)O)N1CCC(C)(CCCCCCc2nc(C)c(C)n2-c2cccc-3c2)CC1 [Example 10, (2S)-tert-Butoxy[4,16,17,26-tetramethyl-1,5,7,8,15,18-hexaazahexacyclo[24.2.2.1^6,9.1^10,14.0^2,7.0^15,19]dotriaconta-2,4,6(32),8,10(31),11,13,16,18-nonaen-3-yl]acetic acid] | 7 nM
